Test results taken from publication PMC3463587, “A Series of Beta-Carboline Derivatives Inhibit the Kinase Activity of PLKs” (PLoS ONE, 2012).
pIC50: −log10 of the molar value.

Key:
HeLa cells [1] = experiment: FITC-Annexin V/PI apoptosis assay, HeLa; type: cell-based, human
From the text: Staining with Annexin V–FITC and propidium iodide (PI) is commonly used to distinguish apoptotic, necrotic, and dead cells. PI is impermeant to live cells and apoptotic cells at early stages, but it stains dead cells and apoptotic cells at late stages through its binding to the nucleic acids. Apoptotic cells in early or late stages are stained positively for Annexin V-FITC that binds to phosphotidylserine. We used FACS analysis to determine the proportion of HeLa cells positive for Annexin V-FITC (FITC), PI, or both. The HeLa cells with PI^−/PI^+ FITC^+ were counted as apoptotic cells (Figure 5). […] However, 16.19% (3.96+12.23) of HeLa cells became FITC positive after treatment with 1.05 µM DH281 for 48 hr. The treatment with 5.25 µM DH281 induced apoptosis among 89.6% (89.51+0.09) of HeLa cells (Table 5). […] In contrast to HeLa cells, the induction of apoptosis by DH281 was much less efficient in non-cancer MRC5 cells (Table 5). Therefore, we conclude that the treatment with compounds DH281, DH285 and DH287 induces substantial apoptosis in HeLa cells, but non-cancer MRC5 cells are much less sensitive to the treatment. The distinct apoptotic responses of HeLa and MRC5 cells to beta-carboline compounds could explain the selectivity of PLK1 inhibitors toward cancer cells.
HeLa cells were either treated with 0, 0.21, 1.05 and 5.25 µM of DH281, DH285 and DH287 for 48 hr, or treated with 1.21 µM compounds for 24, 48 and 72 hr, while MRC5 cells were exposed to compounds at 0, 0.21, 1.05, and 5.25 µM for 48 hr. The cultured cells were harvested, washed three times with PBS, and resuspended in 500 µl binding buffer (10 mM Hepes/sodium hydroxide (pH7.4), 140 mM sodium chloride, and 2.5 mM CaCl2). Then 5 µl FITC-labeled Annexin V (Zhongshan JinQiao Biotechnology Ltd., Beijing) was added and the cells were incubated in the dark for 10 min. We added 5 µl of propidium iodide (PI) (10 µg/ml in binding buffer) to each sample before flow cytometry analysis.

CDK2/cyclinE(h) = CDK2/cyclinE(h) (Homo sapiens, UniProt P24941); experiment: In vitro kinase assay CDK2/cyclinE (33P-ATP); type: biochemical
Method: The inhibition of PLK1 kinase activity was assessed using the Cyclex PLK1 Assay/Inhibitor Screening Kit (MBL International Corporation, Japan). The kit includes anti-phospho-threonine polyclonal antibody (PPT-07) and peroxidase coupled anti-rabbit IgG antibody as a reporter in a 96-well ELSIA format. Compounds were used at the concentrations from 10^− ^3 to 10^2 µg/ml and the absorbance was determined at 450 nm. A similar protocol was used to determine the kinase inhibition for PLK2, PLK3, Aurora A and Aurora B. The kinase activity of CDK1/cyclinB and CDK2/cyclinE was analyzed in the presence of serially diluted inhibitors. For each reaction, 20 ng of recombinant kinase was used and […] casein from bovine milk (Sigma) was added as the kinase substrate. The kinase reaction buffer contains 8 mM MOPS pH7.0, 0.2 mM EDTA, 0.1 mg/ml histone H1, 10 mM and MgAcetace and [γ^− ^33P-ATP] (500 cpm/pmol). The reaction was initiated by adding the MgATP mix. After incubation for 40 minutes at room temperature, the reaction was stopped by the addition of 3% phosphoric acid solution. We spotted 10 µl of the reaction mixture onto a P30 filtermat and washed three times for 5 min with 75 mM phosphoric acid and once with methanol prior to drying and scintillation counting.

HeLa cells [2] = experiment: FACS cell cycle analysis (PI), HeLa; type: cell-based, human
Method: It is well documented that PLK1 is involved in multiple steps in mitosis, such as centrosome maturation and establishment of bipolar spindle. […] Therefore, the down-regulation of PLK1 would change the distribution of cells in different cell cycle stages. To test this possibility, fluorescence-activated cell sorter (FACS) analysis was used to analyze the DNA content of HeLa cells treated with the identified PLK1 inhibitors, DH281, DH285, and DH287. HeLa cells were first incubated in the absence and presence of these compounds at different concentrations (0, 0.12, 0.48 and 1.92 µM) for 48 hr. […] Treatment with a lower concentration of the compounds (0.12 and 0.48 µM) also led to an obvious increase of the cell population in G2/M phase (Figure 4A, Table 3). Moreover, the proportion of HeLa cells in G2/M phase increased over time after incubation in the presence of 0.8 µM of DH281, DH285 and DH287 (Figure 4B, Table 4). […] We also determined the cell cycle distribution of the non-cancer MRC5 cells after treatment with DH281 at different concentrations. […] It is also possible that inhibition of the kinase activity of the whole PLK family by beta-carboline compounds results in the defect in cell cycle progression.
[…] The floated and attached cells were treated by trypsinization and washed with cold PBS. The cells were then fixed with 70% (v/v) ethanol at 4°C overnight. The fixed cells were washed twice with PBS and incubated with 50 µg/mL RNase A (Sigma, USA) and 50 µg/mL propidium iodide (PI) (Sigma, USA) at 37°C for 30 min.

Cc1c2c(cc[n+]1Cc1ccccc1)c1ccc(OCc3ccc(F)cc3)cc1n2CCCc1ccccc1 [DH281]
PI+ FITC+ (late apoptotic cells) (HeLa cells [1]; 0.21 µM, 48 hr): 3.22% | PI+ FITC− (dead cells) (HeLa cells [1]; 0.21 µM, 48 hr): 3.24% | PI− FITC+ (early apoptotic cells) (HeLa cells [1]; 0.21 µM, 48 hr): 0.97% | PI− FITC− (live cells) (HeLa cells [1]; 0.21 µM, 48 hr): 92.57% | FITC positive (apoptotic) cells, early + late (HeLa cells [1]; 1.05 µM, 48 hr): 16.19% | PI+ FITC+ (late apoptotic cells) (HeLa cells [1]; 1.05 µM, 48 hr): 3.96% | PI+ FITC− (dead cells) (HeLa cells [1]; 1.05 µM, 48 hr): 10.22% | PI− FITC+ (early apoptotic cells) (HeLa cells [1]; 1.05 µM, 48 hr): 12.23% | PI− FITC− (live cells) (HeLa cells [1]; 1.05 µM, 48 hr): 73.59% | PI+ FITC+ (late apoptotic cells) (HeLa cells [1]; 1.21 µM, 24 hr): 10.65% | PI+ FITC− (dead cells) (HeLa cells [1]; 1.21 µM, 24 hr): 2.52% | PI− FITC+ (early apoptotic cells) (HeLa cells [1]; 1.21 µM, 24 hr): 1.42% | PI− FITC− (live cells) (HeLa cells [1]; 1.21 µM, 24 hr): 85.41% | PI+ FITC+ (late apoptotic cells) (HeLa cells [1]; 1.21 µM, 48 hr): 8.91% | PI+ FITC− (dead cells) (HeLa cells [1]; 1.21 µM, 48 hr): 3.31% | PI− FITC+ (early apoptotic cells) (HeLa cells [1]; 1.21 µM, 48 hr): 16.20% | PI− FITC− (live cells) (HeLa cells [1]; 1.21 µM, 48 hr): 71.58% | PI+ FITC+ (late apoptotic cells) (HeLa cells [1]; 1.21 µM, 72 hr): 5.97% | PI+ FITC− (dead cells) (HeLa cells [1]; 1.21 µM, 72 hr): 1.41% | PI− FITC+ (early apoptotic cells) (HeLa cells [1]; 1.21 µM, 72 hr): 39.54% | PI− FITC− (live cells) (HeLa cells [1]; 1.21 µM, 72 hr): 53.08% | FITC positive (apoptotic) cells, early + late (HeLa cells [1]; 5.25 µM, 48 hr): 89.6% | PI+ FITC+ (late apoptotic cells) (HeLa cells [1]; 5.25 µM, 48 hr): 0.09% | PI+ FITC− (dead cells) (HeLa cells [1]; 5.25 µM, 48 hr): 0.37% | PI− FITC+ (early apoptotic cells) (HeLa cells [1]; 5.25 µM, 48 hr): 89.51% | PI− FITC− (live cells) (HeLa cells [1]; 5.25 µM, 48 hr): 10.03% | pIC50 (CDK2/cyclinE(h)): < 4.00 | cells in G1 (HeLa cells [2]; 0.12 µM, 48 hr): 70.5% | cells in G2 (G2/M) (HeLa cells [2]; 0.12 µM, 48 hr): 10.1% | cells in S (HeLa cells [2]; 0.12 µM, 48 hr): 19.4% | cells in G1 (HeLa cells [2]; 0.48 µM, 48 hr): 55.3% | cells in G2 (G2/M) (HeLa cells [2]; 0.48 µM, 48 hr): 14.4% | cells in S (HeLa cells [2]; 0.48 µM, 48 hr): 30.3% | cells in G1 (HeLa cells [2]; 0.8 µM, 24 hr): 64.1% | cells in G2 (G2/M) (HeLa cells [2]; 0.8 µM, 24 hr): 10.2% | cells in S (HeLa cells [2]; 0.8 µM, 24 hr): 25.7% | cells in G1 (HeLa cells [2]; 0.8 µM, 36 hr): 53.4% | cells in G2 (G2/M) (HeLa cells [2]; 0.8 µM, 36 hr): 18.9% | cells in S (HeLa cells [2]; 0.8 µM, 36 hr): 27.7% | cells in G1 (HeLa cells [2]; 0.8 µM, 48 hr): 42.4% | cells in G2 (G2/M) (HeLa cells [2]; 0.8 µM, 48 hr): 16.6% | cells in S (HeLa cells [2]; 0.8 µM, 48 hr): 41.1% | cells in G1 (HeLa cells [2]; 0.8 µM, 60 hr): 33.9% | cells in G2 (G2/M) (HeLa cells [2]; 0.8 µM, 60 hr): 14.6% | cells in S (HeLa cells [2]; 0.8 µM, 60 hr): 51.6% | cells in G1 (HeLa cells [2]; 1.92 µM, 48 hr): 38.4% | cells in G2 (G2/M) (HeLa cells [2]; 1.92 µM, 48 hr): 26.7% | cells in S (HeLa cells [2]; 1.92 µM, 48 hr): 34.9%

Cc1c2c(cc[n+]1Cc1ccccc1)c1ccc(OCc3ccccc3)cc1n2Cc1ccccc1 [DH287]
PI+ FITC+ (late apoptotic cells) (HeLa cells [1]; 0.21 µM, 48 hr): 2.16% | PI+ FITC− (dead cells) (HeLa cells [1]; 0.21 µM, 48 hr): 3.48% | PI− FITC+ (early apoptotic cells) (HeLa cells [1]; 0.21 µM, 48 hr): 1.12% | PI− FITC− (live cells) (HeLa cells [1]; 0.21 µM, 48 hr): 93.25% | PI+ FITC+ (late apoptotic cells) (HeLa cells [1]; 1.05 µM, 48 hr): 5.20% | PI+ FITC− (dead cells) (HeLa cells [1]; 1.05 µM, 48 hr): 9.81% | PI− FITC+ (early apoptotic cells) (HeLa cells [1]; 1.05 µM, 48 hr): 7.20% | PI− FITC− (live cells) (HeLa cells [1]; 1.05 µM, 48 hr): 77.8% | PI+ FITC+ (late apoptotic cells) (HeLa cells [1]; 1.21 µM, 24 hr): 10.88% | PI+ FITC− (dead cells) (HeLa cells [1]; 1.21 µM, 24 hr): 3.56% | PI− FITC+ (early apoptotic cells) (HeLa cells [1]; 1.21 µM, 24 hr): 10.39% | PI− FITC− (live cells) (HeLa cells [1]; 1.21 µM, 24 hr): 75.17% | PI+ FITC+ (late apoptotic cells) (HeLa cells [1]; 1.21 µM, 48 hr): 8.31% | PI+ FITC− (dead cells) (HeLa cells [1]; 1.21 µM, 48 hr): 7.05% | PI− FITC+ (early apoptotic cells) (HeLa cells [1]; 1.21 µM, 48 hr): 25.70% | PI− FITC− (live cells) (HeLa cells [1]; 1.21 µM, 48 hr): 58.94% | PI+ FITC+ (late apoptotic cells) (HeLa cells [1]; 1.21 µM, 72 hr): 1.19% | PI− FITC+ (early apoptotic cells) (HeLa cells [1]; 1.21 µM, 72 hr): 55.98% | PI− FITC− (live cells) (HeLa cells [1]; 1.21 µM, 72 hr): 38.27% | PI+ FITC+ (late apoptotic cells) (HeLa cells [1]; 5.25 µM, 48 hr): 5.58% | PI+ FITC− (dead cells) (HeLa cells [1]; 5.25 µM, 48 hr): 8.71% | PI− FITC+ (early apoptotic cells) (HeLa cells [1]; 5.25 µM, 48 hr): 65.36% | PI− FITC− (live cells) (HeLa cells [1]; 5.25 µM, 48 hr): 20.35% | pIC50 (CDK2/cyclinE(h)): < 4.00 | cells in G1 (HeLa cells [2]; 0.12 µM, 48 hr): 77.3% | cells in G2 (G2/M) (HeLa cells [2]; 0.12 µM, 48 hr): 6.86% | cells in S (HeLa cells [2]; 0.12 µM, 48 hr): 15.9% | cells in G1 (HeLa cells [2]; 0.48 µM, 48 hr): 64.8% | cells in G2 (G2/M) (HeLa cells [2]; 0.48 µM, 48 hr): 14.2% | cells in S (HeLa cells [2]; 0.48 µM, 48 hr): 21.0% | cells in G1 (HeLa cells [2]; 0.8 µM, 24 hr): 64.5% | cells in G2 (G2/M) (HeLa cells [2]; 0.8 µM, 24 hr): 10.2% | cells in S (HeLa cells [2]; 0.8 µM, 24 hr): 25.3% | cells in G1 (HeLa cells [2]; 0.8 µM, 36 hr): 54.6% | cells in G2 (G2/M) (HeLa cells [2]; 0.8 µM, 36 hr): 15.9% | cells in S (HeLa cells [2]; 0.8 µM, 36 hr): 29.5% | cells in G1 (HeLa cells [2]; 0.8 µM, 48 hr): 49.3% | cells in G2 (G2/M) (HeLa cells [2]; 0.8 µM, 48 hr): 13.0% | cells in S (HeLa cells [2]; 0.8 µM, 48 hr): 37.8% | cells in G1 (HeLa cells [2]; 0.8 µM, 60 hr): 30.6% | cells in G2 (G2/M) (HeLa cells [2]; 0.8 µM, 60 hr): 16.6% | cells in S (HeLa cells [2]; 0.8 µM, 60 hr): 52.8% | cells in G1 (HeLa cells [2]; 1.92 µM, 48 hr): 51.9% | cells in G2 (G2/M) (HeLa cells [2]; 1.92 µM, 48 hr): 21.0%
